Several values for one entry are separate records, joined by “and”; a condition that tells them apart may be missing. Equal entries are not always repeated. Inconclusive results and toxic doses are left out. Cut-off read from the data, not from the text of the source: active = T/C of 150% or more; inactive = T/C below 125%.
Test system: L1210 leukemia ip in BDF1 mice, survival T/C
Assay: NCI In Vivo Anticancer Drug Screen. Data for tumor model L1210 Leukemia (intraperitoneal) in B6D2F1 (BDF1) mice
Conditions: endpoint: mean survival time, higher = longer survival
Outline: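 Transplantable tumor model; survival measured in treated vs vehicle control mice. Value = treated/control.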

[1] = dose: 100.0 mg/kg/injection, schedule: Q04DX002 (ip), vehicle: Klucel (hydroxypropylcellulose) (HPC)
[2] = dose: 200.0 mg/kg/injection, schedule: Q04DX002 (ip), vehicle: Klucel (hydroxypropylcellulose) (HPC)
[3] = dose: 50.0 mg/kg/injection, schedule: Q01DX009 (ip), vehicle: saline with Tween-80
[4] = dose: 100.0 mg/kg/injection, schedule: Q01DX009 (ip), vehicle: saline with Tween-80
[5] = dose: 100.0 mg/kg/injection, schedule: Q04DX003 (ip), vehicle: saline with Tween-80
[6] = dose: 200.0 mg/kg/injection, schedule: Q01DX009 (ip), vehicle: saline with Tween-80
[7] = dose: 200.0 mg/kg/injection, schedule: Q04DX003 (ip), vehicle: saline with Tween-80
[8] = dose: 400.0 mg/kg/injection, schedule: Q04DX003 (ip), vehicle: saline with Tween-80
[9] = dose: 400.0 mg/kg/injection, schedule: Q01DX009 (ip), vehicle: saline with Tween-80
[10] = dose: 100.0 mg/kg/injection, schedule: Q04DX002 (ip), vehicle: saline with Tween-80
[11] = dose: 200.0 mg/kg/injection, schedule: Q04DX002 (ip), vehicle: saline with Tween-80
[12] = dose: 400.0 mg/kg/injection, schedule: Q04DX002 (ip), vehicle: saline with Tween-80
[13] = dose: 100.0 mg/kg/injection, schedule: Q01DX001 (ip), vehicle: carboxymethylcellulose (CMC)
[14] = dose: 200.0 mg/kg/injection, schedule: Q01DX001 (ip), vehicle: carboxymethylcellulose (CMC)
[15] = dose: 400.0 mg/kg/injection, schedule: Q01DX001 (ip), vehicle: carboxymethylcellulose (CMC)
[16] = dose: 50.0 mg/kg/injection, schedule: Q01DX009 (ip), vehicle: saline
[17] = dose: 100.0 mg/kg/injection, schedule: Q01DX009 (ip), vehicle: saline
[18] = dose: 100.0 mg/kg/injection, schedule: Q04DX003 (ip), vehicle: saline
[19] = dose: 100.0 mg/kg/injection, schedule: Q01DX001 (ip), vehicle: saline
[20] = dose: 200.0 mg/kg/injection, schedule: Q01DX001 (ip), vehicle: saline
[21] = dose: 400.0 mg/kg/injection, schedule: Q01DX001 (ip), vehicle: saline
[22] = dose: 100.0 mg/kg/injection, schedule: Q01DX009 (ip), vehicle: Klucel (hydroxypropylcellulose) (HPC)
[23] = dose: 200.0 mg/kg/injection, schedule: Q01DX009 (ip), vehicle: Klucel (hydroxypropylcellulose) (HPC)
[24] = dose: 400.0 mg/kg/injection, schedule: Q01DX009 (ip), vehicle: Klucel (hydroxypropylcellulose) (HPC)
[25] = dose: 100.0 mg/kg/injection, schedule: Q01DX001 (ip), vehicle: Klucel (hydroxypropylcellulose) (HPC)
[26] = dose: 200.0 mg/kg/injection, schedule: Q01DX001 (ip), vehicle: Klucel (hydroxypropylcellulose) (HPC)
[27] = dose: 400.0 mg/kg/injection, schedule: Q01DX001 (ip), vehicle: Klucel (hydroxypropylcellulose) (HPC)

Measured: T/C

CC1=[N+]([O-])[N+]([O-])=C(c2ccccc2)C1=O
inactive: [1] 100 % of control | [2] 95 % of control | dose: 400.0 mg/kg/injection, schedule: Q04DX002 (ip), vehicle: Klucel (hydroxypropylcellulose) (HPC) 87 % of control

COC(=O)C(CSCSC)NC(=O)/C=C/c1ccccc1Cl (stereo not given)
inactive: [3] 97 % of control and 86 % of control | [4] 92 % of control | [5] 94 % of control | [6] 93 % of control and 92 % of control | [7] 91 % of control | [8] 87 % of control

N#C/C(=C/C=C/c1ccccc1)c1cccc([N+](=O)[O-])c1
inactive: [4] 108 % of control | [6] 91 % of control | [9] 100 % of control

Cc1cccc2cc[nH]c12
inactive: dose: 50.0 mg/kg/injection, schedule: Q01DX001 (ip), vehicle: other 115 % of control | dose: 100.0 mg/kg/injection, schedule: Q01DX001 (ip), vehicle: other 87 % of control | dose: 200.0 mg/kg/injection, schedule: Q01DX001 (ip), vehicle: other 102 % of control | dose: 400.0 mg/kg/injection, schedule: Q01DX001 (ip), vehicle: other 96 % of control

CC(C)CC/C=C/c1ccccc1
inactive: [10] 92 % of control | [11] 104 % of control | [12] 92 % of control

N#CCCP(CCC#N)CCCCCP(CCC#N)CCC#N
inactive: dose: 100.0 mg/kg/injection, schedule: Q01DX001 (ip), vehicle: saline with Tween-80 100 % of control | dose: 200.0 mg/kg/injection, schedule: Q01DX001 (ip), vehicle: saline with Tween-80 92 % of control | dose: 400.0 mg/kg/injection, schedule: Q01DX001 (ip), vehicle: saline with Tween-80 86 % of control

COC(=O)C1CNc2ccccc2C1=O (stereo not given)
inactive: dose: 50.0 mg/kg/injection, schedule: Q01DX001 (ip), vehicle: carboxymethylcellulose (CMC) 97 % of control | [13] 92 % of control | [14] 97 % of control | [15] 92 % of control

Cc1ccc2c(N=Nc3ccc(N(C)C)cc3)cccc2n1
inactive: dose: 25.0 mg/kg/injection, schedule: Q01DX009 (ip), vehicle: saline with Tween-80 93 % of control | [3] 93 % of control | [4] 98 % of control

CC(C(O)c1ccncc1)[N+](=O)[O-] (stereo not given)
inactive: [10] 92 % of control | [11] 107 % of control | [12] 92 % of control

O=C(O)c1cnc(Cl)c([N+](=O)[O-])c1
inactive: [5] 96 % of control | [7] 89 % of control

O=S1(=O)CCCCO1
inactive: dose: 25.0 mg/kg/injection, schedule: Q01DX009 (ip), vehicle: saline 97 % of control | dose: 25.0 mg/kg/injection, schedule: Q04DX003 (ip), vehicle: saline 102 % of control | [16] 101 % of control | dose: 50.0 mg/kg/injection, schedule: Q04DX003 (ip), vehicle: saline 102 % of control | [17] 89 % of control | [18] 98 % of control

COc1ccc(Nc2ccc(O)c3c2C(=O)c2ccccc2C3=O)c(Br)c1
inactive: [19] 101 % of control | [20] 95 % of control | [21] 97 % of control

Cc1ccccc1OC(F)(F)C(F)Cl (stereo not given)
inactive: [4] 103 % of control | [5] 96 % of control | [6] 91 % of control | [7] 94 % of control | [9] 86 % of control | [8] 96 % of control

Cc1cc(N=O)c(NO)cc1C
inactive: [22] 108 % of control | [23] 103 % of control | [24] 118 % of control

CSc1nncc(-c2cnnc(SC)n2)n1
inactive: [1] 108 % of control | [2] 94 % of control

CS(=O)(=O)OC/C(Br)=C/Br
inactive: [13] 103 % of control | [14] 101 % of control

Nc1n[n+](=O)c2ccccc2n1O
inactive: dose: 1.17 mg/kg/injection, schedule: Q01DX001 (ip), vehicle: other 95 % of control | dose: 2.34 mg/kg/injection, schedule: Q01DX001 (ip), vehicle: other 101 % of control | dose: 4.69 mg/kg/injection, schedule: Q01DX001 (ip), vehicle: other 102 % of control

O=C(Nc1ccc(Cl)c(Cl)c1)Oc1ccc(-c2ccccc2)cc1
inactive: [22] 93 % of control | dose: 100.0 mg/kg/injection, schedule: Q04DX003 (ip), vehicle: Klucel (hydroxypropylcellulose) (HPC) 87 % of control | [23] 100 % of control | dose: 200.0 mg/kg/injection, schedule: Q04DX003 (ip), vehicle: Klucel (hydroxypropylcellulose) (HPC) 92 % of control | [24] 90 % of control | dose: 400.0 mg/kg/injection, schedule: Q04DX003 (ip), vehicle: Klucel (hydroxypropylcellulose) (HPC) 88 % of control

CCCC(CCC#N)C(=O)c1ccccc1 (stereo not given)
inactive: [25] 91 % of control | [26] 98 % of control | [27] 95 % of control

c1ccc2ncc(-c3ccc4ccccc4n3)cc2c1
inactive: [25] 100 % of control | [19] 107 % of control | [22] 97 % of control and 116 % of control | [26] 94 % of control | [20] 96 % of control | [23] 95 % of control and 101 % of control | [27] 100 % of control | [21] 96 % of control | [24] 94 % of control and 100 % of control

c1ccc(N=C(Nc2ccccc2)Nc2ccccc2)cc1
inactive: dose: 25.0 mg/kg/injection, schedule: Q01DX009 (ip), vehicle: Klucel (hydroxypropylcellulose) (HPC) 94 % of control | dose: 25.0 mg/kg/injection, schedule: Q04DX002 (ip), vehicle: Klucel (hydroxypropylcellulose) (HPC) 114 % of control | dose: 50.0 mg/kg/injection, schedule: Q01DX009 (ip), vehicle: Klucel (hydroxypropylcellulose) (HPC) 94 % of control | dose: 50.0 mg/kg/injection, schedule: Q04DX002 (ip), vehicle: Klucel (hydroxypropylcellulose) (HPC) 114 % of control | [22] 90 % of control | [1] 96 % of control and 98 % of control

O=C(Nc1ccc(C2=NCCN2)cc1)N1CCN(C(=O)Nc2ccc(C3=NCCN3)cc2)CC1
inactive: dose: 250.0 mg/kg/injection, schedule: Q01DX Z (ip), vehicle: water 87 % of control

O=c1[nH]c2ccccc2c2ccc([N+](=O)[O-])cc12
inactive: [13] 95 % of control | [14] 106 % of control | [15] 93 % of control

COc1cc(Nc2ccc(Oc3ccc(O)c(CN)c3)cc2)c2ncccc2c1
inactive: dose: 75.0 mg/kg/injection, schedule: Q01DX001 (ip), vehicle: other 103 % of control | dose: 150.0 mg/kg/injection, schedule: Q01DX001 (ip), vehicle: other 97 % of control | dose: 300.0 mg/kg/injection, schedule: Q01DX001 (ip), vehicle: other 100 % of control

NC(=S)NN=C1CCCCCCC1
inactive: dose: 8.4 mg/kg/injection, schedule: Q01DX Z (ip), vehicle: methylcellulose (MC) 98 % of control | dose: 23.0 mg/kg/injection, schedule: Q01DX Z (ip), vehicle: methylcellulose (MC) 101 % of control | dose: 39.0 mg/kg/injection, schedule: Q01DX Z (ip), vehicle: methylcellulose (MC) 111 % of control

O=S(=O)(OCC1CO1)c1ccc(Br)cc1 (stereo not given)
inactive: dose: 100.0 mg/kg/injection, schedule: Q01DX008 (ip), vehicle: Klucel (hydroxypropylcellulose) (HPC) 103 % of control | dose: 200.0 mg/kg/injection, schedule: Q01DX008 (ip), vehicle: Klucel (hydroxypropylcellulose) (HPC) 92 % of control | dose: 400.0 mg/kg/injection, schedule: Q01DX008 (ip), vehicle: Klucel (hydroxypropylcellulose) (HPC) 108 % of control

COc1ccc(CC[N+]2=Cc3cc(OC)c(OC)cc3CC2)cc1OC
inactive: [16] 97 % of control | [17] 105 % of control | [18] 97 % of control | dose: 200.0 mg/kg/injection, schedule: Q04DX003 (ip), vehicle: saline 101 % of control

— PubChem BioAssay AID248 (DTP/NCI, 2004)
